According to patent US20230107216A1, “PANTETHEINE DERIVATIVES AND USES THEREOF” (Comet Therapeutics, Inc., priority 2018, published 2023):
Like-named read-outs stand apart in the source and are kept apart here.

Experiments:
[1] = test system: Propionic Acidemia (PA) primary fibroblasts GM00371; test: Mitochondrial respiration, XFe96 Extracellular Flux Analyzer (OCR/ECAR), PA fibroblasts GM00371; type: cell-based; settings: Homo sapiens, Fibroblast
[2] = test system: primary fibroblasts (healthy controls and PA, MMA, BCKDK, PDH, VLCAD, LS, PC, GA, VLCFA, KSS, FXN, HD); test: Measurement of ROS (H2DCFDA) in primary fibroblasts; type: cell-based, human; settings: procedure Example 812; for inhibition at 10 µM: Homo sapiens
Method in brief: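 Patient and healthy-control primary fibroblasts switched to supplemented DMEM 24 h before assay, then treated with compound (10 μM) plus H2DCFDA (22 μM) for 2 h (PA, MMA lines) or 24 h (other lines). Kinetic fluorescence at 492/527 nm over 60 min; only live cells analysed.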

[3] = Fibroblast, VLCFA GM13262, Assay Condition C, read-out: Decreased ROS by at least 30%
[4] = Fibroblast, NPC1 GM22879, Assay Condition C, read-out: Decreased ROS by at least 30%
[5] = Fibroblast, PDH GM01503, Assay Condition C, read-out: Decreased ROS by at least 10%
[6] = FXN GM04078, Assay Condition C, read-out: Decreased ROS by at least 10%
[7] = Fibroblast, BCKD GM00612, Assay Condition A, read-out: Decreased ROS by at least 10%
[8] = FXN GM04078, Assay Condition C, read-out: Decreased ROS by at least 30%
[9] = Fibroblast, PDH GM01503, Assay Condition C, read-out: Decreased ROS by at least 30%

SMILES: CC(C)(CO)[C@@H](O)C(=O)NCCC(=O)NCCSC(=O)CCC(=O)O [Compound 1, (R)-4-((2-(3-(2,4-dihydroxy-3,3-dimethylbutanamido)propanamido)ethyl)thio)-4-oxobutanoic acid]
- activation at 50 µM ([1]; assay condition C (10 mM glucose, 10% FBS), 50 μM, read-out: Increase in Maximal Respiratory Capacity AUC): ≥ 10%
- activation at 10 µM ([1]; assay condition D (1 mM glucose, 10% FBS), 10 μM, read-out: Increase in Spare Capacity AUC): ≥ 10%

SMILES: CC(C)=CC(=O)SCCNC(=O)CCNC(=O)[C@H](O)C(C)(C)CO [Compound 37, S-2-{3-[(R)-2,4-dihydroxy-3,3-dimethylbutyrylamino]propionylamino}ethyl 3-methyl-2-butenethioate]
- inhibition at 10 µM ([2]; Fibroblast, VLCFA GM13262, Assay Condition C, read-out: Decreased ROS by at least 10%): ≥ 10%
- inhibition at 10 µM [2, 3]: ≥ 30%

SMILES: C[C@@H](O)CC(=O)CC(=O)SCCNC(=O)CCNC(=O)[C@H](O)C(C)(C)CO [Compound 42, (2R)-2,4-dihydroxy-N-[2-[(2-[[(5R)-5-hydroxy-3-oxohexanoyl]sulfanyl]ethyl)carbamoyl]ethyl]-3,3-dimethylbutanamide]
- inhibition at 10 µM [2, 4]: ≥ 30%
- inhibition at 10 µM [2, 5]: ≥ 10%

SMILES: COC(=O)CCC(=O)SCCNC(=O)CCNC(=O)[C@H](O)C(C)(C)COC(C)=O [Compound 138]
- inhibition at 10 µM ([2]; Fibroblast, NPC1 GM22879, Assay Condition C, read-out: Decreased ROS by at least 10%): ≥ 10%
- inhibition at 10 µM [2, 4]: ≥ 30%
- inhibition at 10 µM [2, 6]: ≥ 10%

SMILES: CC(=O)SCCNC(=O)CCNC(=O)[C@H](O)C(C)(C)COC(=O)CN [Compound 560, (3R)-3-[(2-[[2-(acetylsulfanyl)ethyl]carbamoyl]ethyl)carbamoyl]-3-hydroxy-2,2-dimethylpropyl 2-aminoacetate]
- inhibition at 10 µM [2, 6]: ≥ 10%

SMILES: CC(C)C(=O)CC(=O)SCCNC(=O)CCNC(=O)[C@H](O)C(C)(C)CO [Compound 1239, (R)—S-(2-(3-(2,4-dihydroxy-3,3-dimethylbutanamido)propanamido)ethyl) 4-methyl-3-oxopentanethioate]
- inhibition at 10 µM [2, 7]: ≥ 10%
- inhibition at 10 µM [2, 3]: ≥ 30%
- inhibition at 10 µM [2, 6]: ≥ 10%
- inhibition at 10 µM [2, 8]: ≥ 30%

SMILES: C[C@H](CC(=O)SCCNC(=O)CCNC(=O)[C@H](O)C(C)(C)CO)OC(=O)CCC(=O)O [Compound 1243, 4-{[(2R)-4-[(2-{3-[(2R)-2,4-dihydroxy-3,3-dimethylbutanamido]propanamido}ethyl)sulfanyl]-4-oxobutan-2-yl]oxy}-4-oxobutanoic acid]
- inhibition at 10 µM ([2]; Fibroblast, BCKD GM00649, Assay Condition C, read-out: Decreased ROS by at least 10%): ≥ 10%
- inhibition at 10 µM ([2]; Fibroblast, BCKD GM00649, Assay Condition C, read-out: Decreased ROS by at least 30%): ≥ 30%
- inhibition at 10 µM [2, 6]: ≥ 10%
- inhibition at 10 µM [2, 8]: ≥ 30%

SMILES: CC(C(=O)SCCNC(=O)CCNC(=O)[C@H](O)C(C)(C)CO)[C@@H](C)O (stereo partly drawn) [Compound 1244, (2R)-2,4-dihydroxy-N-{2-[(2-{[(3R)-3-hydroxy-2-methylbutanoyl]sulfanyl}ethyl)carbamoyl]ethyl}-3,3-dimethylbutanamide]
- inhibition at 10 µM [2, 7]: ≥ 10%
- inhibition at 10 µM [2, 3]: ≥ 30%

SMILES: CC[C@@H](O)CC(=O)SCCNC(=O)CCNC(=O)[C@H](O)C(C)(C)CO [Compound 1245, (2R)-2,4-dihydroxy-N-{2-[(2-{[(3R)-3-hydroxypentanoyl]sulfanyl}ethyl)carbamoyl]ethyl}-3,3-dimethylbutanamide]
- inhibition at 10 µM ([2]; Fibroblast, VLCAD GM17475, Assay Condition C, read-out: Decreased ROS by at least 10%): ≥ 10%
- inhibition at 10 µM ([2]; Fibroblast, VLCAD GM17475, Assay Condition C, read-out: Decreased ROS by at least 30%): ≥ 30%

SMILES: CC(C)(CO)[C@@H](O)C(=O)NCCC(=O)NCCSC(=O)CCCO [Compound 1304, (2R)-2,4-dihydroxy-N-[2-([2-[(4-hydroxybutanoyl)sulfanyl]ethyl]carbamoyl)ethyl]-3,3-dimethylbutanamide]
- inhibition at 10 µM [2, 5]: ≥ 10%
- inhibition at 10 µM [2, 9]: ≥ 30%

SMILES: C[C@H](O)CC(=O)CC(=O)SCCNC(=O)CCNC(=O)[C@H](O)C(C)(C)CO [Compound 1306, (2R)-2,4-dihydroxy-N-[2-[(2-[[(5S)-5-hydroxy-3-oxohexanoyl]sulfanyl]ethyl)carbamoyl]ethyl]-3,3-dimethylbutanamide]
- Decreased ROS by at least 30% ([2]; Healthy GM05659, Assay Condition A): ≥ 30%
- Decreased ROS by at least 30% ([2]; Healthy GM23974, Assay Condition A): ≥ 30%
- inhibition at 10 µM [2, 5]: ≥ 10%
- inhibition at 10 µM [2, 9]: ≥ 30%
- inhibition at 10 µM [2, 6]: ≥ 10%
- inhibition at 10 µM [2, 8]: ≥ 30%
